From PMC12864978, “Covalent modification of a glutamic acid inspired by HaloTag technology” (Nature Communications, 2026)
“Also recorded” adds a separate entry of the source.

Tests used:
[1] = biological target: PDEδ in Jurkat cell lysates (Homo sapiens, UniProt O43924); assay: In-lysate covalent modification of PDEδ (anti-PDEδ immunoblot band shift)
From the text: Relative band intensities were quantified using Image Lab (BIO-RAD).

PDEδ in Jurkat cells = biological target: T1, PDEδ in Jurkat cells (Homo sapiens, UniProt O43924); assay: CETSA in intact cells (in-cell CETSA); type: cell-based; settings: 15 min at 37 °C
T1 construct: host or cells: Jurkat
T1 sequence (O43924 whole entry): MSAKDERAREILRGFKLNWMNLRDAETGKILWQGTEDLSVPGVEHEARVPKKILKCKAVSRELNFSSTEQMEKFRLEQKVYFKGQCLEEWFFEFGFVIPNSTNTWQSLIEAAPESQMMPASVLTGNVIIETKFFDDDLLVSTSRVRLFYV
Method: Cells were collected and resuspended in cold PBS and further washed thrice in cold PBS. […] Afterwards, NP40 alternative was added to a final concentration of 0.4% (v/v), and cells were lysed by five consecutive freeze/thaw cycles. […] Supernatants were transferred to new tubes, and equal volumes of each sample were loaded on an SDS-PAGE gel and subjected to immunoblot analysis.

[2] = tested on: panel of human cell lines; assay: Cytotoxicity screening in a panel of human cell lines; type: cell-based; settings: concentrations up to 25 µM
Method: (§1) Real-time cell analysis (RTCA) was conducted using an Incucyte S3 live-cell analysis system (Sartorius AG, Germany). Adherent cell lines were seeded at 5 × 10³ cells per well in 96-well plates containing 100 µl of culture medium and incubated overnight at 37 °C with 5% CO₂. Following attachment overnight, the medium was replaced with fresh medium containing test compounds, with all conditions adjusted to contain 0.5% DMSO. […] Phase-contrast images (2 images per well) were automatically captured at 2-h intervals until control wells (DMSO-treated) reached full confluency. Cell growth was quantified using the instrument’s integrated Basic Analyser module by applying a confluence mask to calculate the percentage of phase area confluence. For dose-response assessment, confluence values at 72 h post-treatment were normalised to the DMSO control and analysed using GraphPad Prism 9.5.1 (GraphPad Software, USA). Dose-response curves were generated and fitted via four-parameter variable slope nonlinear regression to determine cellular IC₅₀ values.
representative of biological replicates n = 3.
comet images for each condition were shown.
time live-cell imaging by Incucyte.
Source data are provided as […]

PDEδ [3] = biological target: T2, PDEδ (Homo sapiens, UniProt O43924); assay: Differential scanning fluorimetry (NanoDSF); type: binding; set-up: His tag; made in house; host or cells: Escherichia coli Rosetta (BL21DE3), pET plasmids
T2 sequence (O43924 whole entry): as above
Method: Afterwards, a sample of the solution was cooled down to room temperature and was loaded onto a capillary, followed by the measurement of fluorescence intensities at 350 nm and 330 nm from 20 °C up to 90 °C (with a rate of increment of 1 °C/min) using the Prometheus Panta device (NanoTemper® Technologies, DE).

Mouse plasma stability = type: in vitro ADME; settings: 50% mouse plasma in PBS, within an hour
From the text: plotted as mean ± standard deviation, representative of 3 technical replicates ( N = 3). Unpaired, two-
Data were plotted as mean ± standard deviation, representative of 3 technical replicates in the presence

PDEδ [4] = biological target: T2, PDEδ; assay: Mass spectrometry analysis of PDEδ adducts after Glu-C digestion; type: binding; set-up: His tag; made in house; host or cells: Escherichia coli Rosetta (BL21DE3), pET plasmids; settings: LC-MS/MS, 10:1 compound to protein
Method: For each replicate, 1.5 µg covalent adduct of PDEδ sample in PBS buffer was denatured, reduced, alkylated and digested by Glu-C and desalted, together with a negative control of unbound vehicle-treated PDEδ sample prior to mass spectrometry analysis. […] The final mixture containing 6.5 M guanidine hydrochloride was heated at 95 °C for 15 min. Subsequently, after cooling, 0.5 µl of a 50 mM dithiothreitol (DTT, cas 3483-12-3, Gerbu Biotechnik, #1008-100 g) solution was added. […] . Samples were incubated at 37 °C overnight with shaking at 400 rpm, protected from light. […] Desalting was carried out with stage tips with C18 extraction discs (Empore^TM high performance extraction discs, 47 mm, 3 M Bioanalytical Technologies #2215). Each stage tip, which consists of two stacked layers of C18 discs, was activated with methanol (100 µl), washed once with buffer B (100 µl, 0.1% formic acid, 80% acetonitrile), and twice with buffer A (100 µl/time, 0.1% formic acid). After sample loading and washing with buffer A once, the desalted sample was eluted with buffer B (20 µl/sample) and centrifuged at 500×g at room temperature for 5 min. Eluted samples were then dried in a SpeedVac at 30 °C.
Data evaluation was performed using MaxQuant software (v.2.2.0.0)[52]. […] Cleavages by Glu-C were analysed based on the enzyme that was used for digestion. […]

BxPC-3 cells = assay: Real-time cell analysis (Incucyte) of proliferation; type: cell-based, human; settings: Homo sapiens, 72 h, read-out: cellular IC50
Method: as §1, with “Adherent cell lines were seeded at 5 × 10³ cells per well in 96-well plates containing 100 µl of culture medium and incubated overnight at 37 °C with 5% CO₂.” left out, “For dose-response assessment, confluence values at 72 h post-treatment were normalised to the DMSO control and analysed using GraphPad Prism 9.5.1 (GraphPad Software, USA).” left out

MIA PaCa-2 cells = assay: as above; type: cell-based, human
Method: as §1, with “Adherent cell lines were seeded at 5 × 10³ cells per well in 96-well plates containing 100 µl of culture medium and incubated overnight at 37 °C with 5% CO₂.” left out, “For dose-response assessment, confluence values at 72 h post-treatment were normalised to the DMSO control and analysed using GraphPad Prism 9.5.1 (GraphPad Software, USA).” left out

NCI-H358 cells = assay: as above; type: cell-based, human; settings: Homo sapiens, NCI-H358, 72 h, NCI-H358; 72 h; read-out: cellular IC50
Method: as §1, with “Adherent cell lines were seeded at 5 × 10³ cells per well in 96-well plates containing 100 µl of culture medium and incubated overnight at 37 °C with 5% CO₂.” left out, “For dose-response assessment, confluence values at 72 h post-treatment were normalised to the DMSO control and analysed using GraphPad Prism 9.5.1 (GraphPad Software, USA).” left out

SW480 cells = assay: as above; type: cell-based, human; settings: Homo sapiens, 72 h, read-out: cellular IC50
Method: as §1, with “Adherent cell lines were seeded at 5 × 10³ cells per well in 96-well plates containing 100 µl of culture medium and incubated overnight at 37 °C with 5% CO₂.” left out, “For dose-response assessment, confluence values at 72 h post-treatment were normalised to the DMSO control and analysed using GraphPad Prism 9.5.1 (GraphPad Software, USA).” left out

PA-TU-8902 cells = assay: as above; type: cell-based, human
Method: as §1, with “Adherent cell lines were seeded at 5 × 10³ cells per well in 96-well plates containing 100 µl of culture medium and incubated overnight at 37 °C with 5% CO₂.” left out, “For dose-response assessment, confluence values at 72 h post-treatment were normalised to the DMSO control and analysed using GraphPad Prism 9.5.1 (GraphPad Software, USA).” left out

Chain of PDEδ in Jurkat cell lysates (O43924 whole entry): as above

## Cc1ccc(-n2nc3c(=O)n(CCCCS(=O)(=O)N(CCc4cccc(CCBr)c4)CC4CCNCC4)nc(C)c3c2C)cc1 [6a]
[1]; 10 µM for 2 h
  in-lysate covalent modification of PDEδ on anti-PDEδ immunoblot: upward shift of the band indicates covalent binding
[1]; 10 µM, 15 min
  Estimated % PDEδ labelling: 33%
[1]; 10 µM, 15 min, listed as DeltaTag
  Estimated % PDEδ labelling: approximately 33%
[1]; 10 µM, 30 min
  Estimated % PDEδ labelling: 55%
[1]; 10 µM, 60 min
  Estimated % PDEδ labelling: 60%
[1]; 50 µg cell lysates, 10 µM
  time to estimated full labelling of PDEδ: ≤ 2 h
PDEδ in Jurkat cells
  ΔTm at 10 µM: 9.3 ± 0.2 °C
[2]
  general cytotoxicity: no general toxicity; also recorded: not observed
PDEδ [3]; 2 h incubation
  ΔTm (NanoDSF): 13.5 ± 0.2 °C
PDEδ [3]; PDEδ 20 µM, compound 60 µM, mean ± s.d., Fig. 2e, read-out: melting temperature shift ΔTm (NanoDSF)
  ΔTm at 60 µM: 15.5 ± 1 °C
Mouse plasma stability
  stability in mouse plasma: stable in mouse plasma
PDEδ [4]
  site of covalent modification in PDEδ: either at p.E88 or p.E89
BxPC-3 cells
  IC50: 20 ± 1.3 µM
MIA PaCa-2 cells; 25 µM
  % Growth rate of MIA PaCa-2 cells: 15%
MIA PaCa-2 cells; 50 µM
  % Growth rate of MIA PaCa-2 cells: 15%
MIA PaCa-2 cells; Homo sapiens, MIA PaCa-2, 72 h, read-out: cellular IC50
  IC50: 7 ± 0.4 µM
MIA PaCa-2 cells; MIA PaCa-2
  difference in cellular potency vs Deltazinone 1: > 7 fold
NCI-H358 cells
  IC50: 6.3 ± 3.5 µM
SW480 cells
  IC50: 18.6 ± 3 µM
PA-TU-8902 cells; 25 µM
  % Growth rate of PA-TU-8902 cells: 16%
PA-TU-8902 cells; 50 µM
  % Growth rate of PA-TU-8902 cells: 26%
PA-TU-8902 cells; Homo sapiens, PaTu 8902, PA-TU-8902, 72 h, read-out: cellular IC50
  IC50: 6.8 ± 0.5 µM
